According to patent US20240309360A1, “TRANS-ACTIVATORS AND METHODS AND USE THEREOF” (THE GOVERNING COUNCIL OF THE UNIVERSITY OF TORONTO, priority 2021, published 2024):

Experiments:
Type in all cases: cell-based, human
[1] = system: EGFP reporter (7×TetO array, basal CMV promoter) in HEK293T reporter cell line; experiment: TAD-seq pooled activation screen of 60-aa fragments fused to PYL1; settings: for Hit high GFP: high GFP population (top 1%); for logFC high GFP / logFC medium GFP: log 2 fold change of counts, 100 μM ABA 48 hours; for logFC high GFP: sorted high GFP cells (top 1%) vs unsorted cells; for logFC medium GFP: sorted medium GFP cells (top 2-5%) vs unsorted cells; for Hit medium GFP: medium GFP population (top 2-5%)
Outline: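 60-aa tiles at 20-aa steps from 75 activator proteins, C-terminally fused to PYL1, lentivirally transduced at low MOI into reporter cells co-expressing ABI-dCas9 and promoter gRNA. Recruitment induced with 100 μM abscisic acid for 48 h (DMSO control). Top 1% and next 4% GFP cells sorted; fragments quantified by sequencing, two replicates.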

[2] = system: EGFP reporter (TetO7) in HEK293T cells; experiment: Multi-TAD effectors fused to PYL1 recruited to EGFP reporter; settings: PYL1 fusion, 1 μM abscisic acid, 24 or 48 hours
Experimental: Multiple TADs were fused together with PYL1 and tested for transcriptional activity using the PYL1-ABI EGFP reporter system described above. The following TAD fragments were used: CITED1-8 (SEQ ID NO: 47), CITED2-12 (SEQ ID NO: 49), C3orf62-12 (SEQ ID NO: 45), BRD8-25 (SEQ ID NO: 40), ZXDC-12 (SEQ ID NO: 97), KLF7-1 (SEQ ID NO: 72), ATXN7L3-1 (SEQ ID NO: 35), FAM90A1-20 (SEQ ID NO: 60), SPDYE4-3 (SEQ ID NO: 90), YAF2-7 (SEQ ID NO: 96).
Methods: Cells were seeded on 48-well plates. Next day, after cells were between 70-90% confluent, 250 ng of each construct was transfected in each well using (Thermo Fisher Scientific, 11668019) reagent. Each construct was either directly fused TagRFP either directly fused to each component or being co-expressed from the same plasmid was used as a measure of transfection. In each experiment, the same gate for RFP+ cells were used to control for the effect of each construct's expression levels on activity. EGFP reporter cells were expanded from a clonal line to control for level of ABI-dCas9 and gRNA targeting the TetO7 sites upstream of the promoter. For the CD133 induction experiment, a 293T cell line stably expressing ABI-dCas9 and a pool of 5 gRNAs targeting the promoter were used for all activators. CD133 antibody conjugated to APC (Miltenyi Biotec, 130-113-668) was used. […]

[3] = system: EGFP reporter (7×TetO array, basal CMV promoter) in HEK293T reporter cell line; experiment: Arrayed recruitment assay, PYL1 fusions individually recruited to reporter via ABI1-dCas9 with ABA; set-up: key to independently validated as transactivating fragment: Fragments marked with * were independently validated; settings: fragment fused to PYL1, arrayed format
Description: Treatment of cells with abscisic acid (ABA) induces an interaction between ABI1 and PYL1, thereby recruiting the potential transcriptional activator to a specific genomic locus defined by the guide RNA (gRNA). As a reporter, a HEK293T cell line that contains a stably integrated construct with a 7×TetO array and a basal CMV promoter driving the expression of EGFP was used (Gao et al., 2016). A monoclonal cell line that expresses ABI1-dCas9 and a single gRNA targeting TetO was generated by lentiviral infection.
(§1) Arrayed recruitment assays. Reporter cells stably co-expressing ABI-dCas9 and TetO gRNA were seeded either on 48-well or 96-well plates (Sarstedt) to reach 50-70% confluency on the day of transfection. 150 ng of each construct to be tested was transfected with polyethylenimine (PEI) at a ratio of 0.6 μl reagent. The day after transfection, recruitment was induced by treatment with ABA (100 μM). […] Inhibitors were dissolved in DMSO to a stock concentration of 10 mM. The final concentrations used were 100 nM for flavopiridol, 300 nM for JQ1, 1 μM for A-485, 2.5 μM for CX-4945 and 3 μM for AZ191. All inhibitors were a kind gift from the Structural Genomics Consortium (SGC). 48 hours after induction, cells were dissociated and resuspended in flow buffer using a liquid handing robot (TECAN) and analyzed by LSR Fortessa (BD). Cells were gated on high EBFP2 and RFP as a measure of gRNA and transfection control, respectively. Flow cytometry data was analyzed using FlowJo (v10).

[4] = system: transcriptional activity of 83 transcriptional regulators on the EGFP reporter; experiment: Tethered reporter assays in the presence of inhibitors; settings: for effect of inhibitor on activity of the activators: 100 nM flavopiridol, 300 nM JQ1, 1 μM A-485, 2.5 μM CX-4945, 3 μM AZ191, 100 μM ABA 48 hours; for effect of inhibitor on activity of NuA4 complex interactors: 1 μM A-485 or 300 nM JQ1, e.g; call rule not given here. JAZF1 and KLF6
Experimental: To functionally investigate the connection between transcriptional activators and co-factors, a panel of 83 robust activators was arrayed. Their activation potential was tested using the reporter assay, but now in the presence of small-molecule inhibitors targeting multiple transcriptional co-regulators. Three kinase inhibitors targeting transcriptional kinases (flavopiridol for CDK9, CX-4945 for casein kinase 2, and AZ191 for DYRK1A and DYRK1B), and two compounds inhibiting transcriptional co-factors (A-485 for CBP/p300, and JQ1 for BET family bromodomain proteins) were employed.
as §1

Row | Compound | Hit high GFP [1] | logFC high GFP [1] | logFC medium GFP [1] | Hit medium GFP [1] | independently validated as transactivating fragment [3] | effect of inhibitor on activity of the activators [4] | other results
1 | SPDYE4-3: 60-aa TAD-seq fragment of SPDYE4; SPDYE4 activation domain (DPSPQPQSLGLKRKSEWSDESEEELEEELELERAPEPEDTWVVETLCGLKMKLKRKRASS; listed as Homo sapiens) | hit | 4.82 | 2.409 | hit | 3* | – | transcriptional activation of EGFP reporter by TAD fusions [2]: weak activity
2 | CNC(=O)Nc1ccc2c(c1)CC[C@@]21OC(=O)N(CC(=O)N(Cc2ccc(F)cc2)[C@@H](C)C(F)(F)F)C1=O [Fragment A-485, A-485] | – | – | – | – | – | strongly affected the activity of some but not all transactivators | effect of inhibitor on activity of CBP/p300 non-interactors ([4]; 1 μM A-485): only one of the seven non-interactors was affected; effect of inhibitor on activity of KLF6 ([4]; 1 μM A-485): no effect; effect of inhibitor on activity of KLF15 ([4]; 1 μM A-485): inhibited the activity of KLF15; effect of inhibitor on activity of CBP/p300 interactors ([4]; 1 μM A-485, interactors by AP-MS and BioID): four of the six CBP/p300 interactors was significantly decreased; effect of inhibitor on activity of NuA4 complex interactors [4]: not significantly affected; sensitivity of C3orf62-Cterm and SRF-C3orf62 reporter activation to inhibitor ([4]; CBP/p300 inhibition): highly sensitive
3 | COc1cc(N2CCN(C)CC2)ccc1Nc1nccc(-c2cn(C)c3cnccc23)n1 [AZ191] | – | – | – | – | – | slightly attenuating the activity of most activators | effect of inhibitor on activity of DCAF7 and NCKIPSD ([4]; 3 μM AZ191): not affected
4 | Cc1sc2c(c1C)C(c1ccc(Cl)cc1)=N[C@@H](CC(=O)OC(C)(C)C)c1nnc(C)n1-2 [JQ1] | – | – | – | – | – | increase in reporter gene activity | effect of inhibitor on activity of NuA4 complex interactors [4]: not affected
5 | FAM90A1-20: 60-aa TAD-seq fragment of FAM90A1 (HPAASHDGAQPLRVLFRRLENGRWSSSLLTAPSFHSPEKPGAFLAQSPHVSEKSEGPCVR; listed as Homo sapiens) | hit | 3.017 | 1.616 | hit | 20* | – | –
6 | CITED2-12: 60-aa TAD-seq fragment of CITED2 (AMLPPNVIDTDFIDEEVLMSLVIEMGLDRIKELPELWLGQNEFDFMTDFVCKQQPSRVSC; listed as Homo sapiens) | hit | 6.148 | −0.9005 | – | 12* | – | –
7 | BRD8-25: 60-aa TAD-seq fragment of BRD8 (GEELDFETVGDIIAIIEDKVDDHPEVLDVAAVEAALSFCEENDDPQSLPGPWEHPIQQER; listed as Homo sapiens) | hit | 1.567 | 1.834 | hit | BRD8-25* | – | –
8 | CN1CC[C@H](c2c(O)cc(O)c3c(=O)cc(-c4ccccc4Cl)oc23)[C@H](O)C1 [flavopiridol] | – | – | – | – | – | nearly complete loss of activity of all activators | –
9 | KLF7-1: 60-aa TAD-seq fragment of KLF7 (MDVLASYSIFQELQLVHDTGYFSALPSLEETWQQTCLELERYLQTEPRRISETFGEDLDC; listed as Homo sapiens) | hit | 5.998 | 1.29 | hit | KLF7-1* | – | –
